Test results published in the supplement of paper PMC10883282.
± gives the standard deviation of the averaged measurements.

Experiments:
Assay in all cases: relative viability vs DMSO control (72 h) (fraction); higher = more viable cells
A204 = system: A204
In short: (§1)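 ATPLite readings, expressed as percent growth and averaged over up to triplicate wells, provided relative viability. Before reading, sarcoma cell lines seeded in 384-well plates to reach 80–90% confluence received 2.5 µl of serially diluted compound after 24 h, from source plates of 10 mM to 0.0002 mM. Plates were held 72 h at 37 °C, 5% CO2, with 0.1% DMSO as vehicle and a 5 µM positive control. The data were rescaled to 1 for full and 0 for none.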

G401 = system: G401
In short: as §1

HS729 = system: HS729
In short: as §1

HT1080 = system: HT1080
In short: as §1

KHOS-NP = system: KHOS-NP
In short: as §1

RD-ES = system: RD-ES
In short: as §1

SK-ES-1 = system: SK-ES-1
In short: as §1

SK-LMS-1 = system: SK-LMS-1
In short: as §1

SW684 = system: SW684
In short: as §1

SW872 = system: SW872
In short: as §1

SW982 = system: SW982
In short: as §1

VA-ES-BJ = system: VA-ES-BJ
In short: as §1

N#Cc1ccnc(N2C(=O)CC[C@H]2C(=O)N(c2cncc(F)c2)[C@H](C(=O)NC2CC(F)(F)C2)c2ccccc2Cl)c1 [Ivosidenib]
Conditions	relative viability
A204, 0.00017 µM	1.07 ± 0.0082
A204, 0.00051 µM	1.03 ± 0.067
A204, 0.00152 µM	1.11 ± 0.015
A204, 0.00457 µM	1.06 ± 0.035
A204, 0.01372 µM	1.04 ± 0.025
A204, 0.04115 µM	1.03 ± 0.061
A204, 0.1235 µM	1.05 ± 0.059
A204, 0.3704 µM	1.015 ± 0.0067
A204, 1.111 µM	1.06 ± 0.045
A204, 3.333 µM	1.03 ± 0.053
A204, 10 µM	0.971 ± 0.073
G401, 0.00017 µM	0.926 ± 0.036
G401, 0.00051 µM	0.927 ± 0.047
G401, 0.00152 µM	0.971 ± 0.014
G401, 0.00457 µM	1.01 ± 0.017
G401, 0.01372 µM	0.952 ± 0.016
G401, 0.04115 µM	0.934 ± 0.01
G401, 0.1235 µM	0.99 ± 0.028
G401, 0.3704 µM	0.943 ± 0.035
G401, 1.111 µM	0.958 ± 0.017
G401, 3.333 µM	0.929 ± 0.018
G401, 10 µM	0.896 ± 0.0092
HS729, 0.00017 µM	0.966 ± 0.016
HS729, 0.00051 µM	1 ± 0.053
HS729, 0.00152 µM	1.01 ± 0.039
HS729, 0.00457 µM	1.01 ± 0.045
HS729, 0.01372 µM	0.998 ± 0.054
HS729, 0.04115 µM	0.993 ± 0.03
HS729, 0.1235 µM	1.01 ± 0.03
HS729, 0.3704 µM	1 ± 0.039
HS729, 1.111 µM	0.982 ± 0.077
HS729, 3.333 µM	0.949 ± 0.032
HS729, 10 µM	0.96 ± 0.058
HT1080, 0.00017 µM	0.987 ± 0.059
HT1080, 0.00051 µM	1.07 ± 0.022
HT1080, 0.00152 µM	1.03 ± 0.054
HT1080, 0.00457 µM	1.0513 ± 0.00042
HT1080, 0.01372 µM	1.09 ± 0.021
HT1080, 0.04115 µM	1.07 ± 0.014
HT1080, 0.1235 µM	1.11 ± 0.017
HT1080, 0.3704 µM	1.106 ± 0.0013
HT1080, 1.111 µM	1.1 ± 0.011
HT1080, 3.333 µM	1.09 ± 0.021
HT1080, 10 µM	1.05 ± 0.015
KHOS-NP, 0.00017 µM	1.05 ± 0.011
KHOS-NP, 0.00051 µM	1.05 ± 0.031
KHOS-NP, 0.00152 µM	1.07 ± 0.024
KHOS-NP, 0.00457 µM	1.07 ± 0.025
KHOS-NP, 0.01372 µM	1.05 ± 0.02
KHOS-NP, 0.04115 µM	1.05 ± 0.011
KHOS-NP, 0.1235 µM	1.06 ± 0.024
KHOS-NP, 0.3704 µM	1.03 ± 0.013
KHOS-NP, 1.111 µM	1.05 ± 0.024
KHOS-NP, 3.333 µM	1.05 ± 0.023
KHOS-NP, 10 µM	1.06 ± 0.017
RD-ES, 0.00017 µM	0.948 ± 0.067
RD-ES, 0.00051 µM	0.976 ± 0.095
RD-ES, 0.00152 µM	1 ± 0.066
RD-ES, 0.00457 µM	0.977 ± 0.069
RD-ES, 0.01372 µM	0.996 ± 0.041
RD-ES, 0.04115 µM	0.986 ± 0.039
RD-ES, 0.1235 µM	1 ± 0.038
RD-ES, 0.3704 µM	1.02 ± 0.028
RD-ES, 1.111 µM	0.986 ± 0.038
RD-ES, 3.333 µM	0.973 ± 0.029
RD-ES, 10 µM	0.9403 ± 0.0071
SK-ES-1, 0.00017 µM	0.941 ± 0.033
SK-ES-1, 0.00051 µM	0.962 ± 0.045
SK-ES-1, 0.00152 µM	0.984 ± 0.05
SK-ES-1, 0.00457 µM	1.02 ± 0.076
SK-ES-1, 0.01372 µM	0.988 ± 0.032
SK-ES-1, 0.04115 µM	1.01 ± 0.063
SK-ES-1, 0.1235 µM	1 ± 0.047
SK-ES-1, 0.3704 µM	0.965 ± 0.024
SK-ES-1, 1.111 µM	1 ± 0.038
SK-ES-1, 3.333 µM	0.978 ± 0.041
SK-ES-1, 10 µM	0.983 ± 0.024
SK-LMS-1, 0.00017 µM	1.01 ± 0.013
SK-LMS-1, 0.00051 µM	1.01 ± 0.021
SK-LMS-1, 0.00152 µM	1.033 ± 0.0078
SK-LMS-1, 0.00457 µM	1.04 ± 0.034
SK-LMS-1, 0.01372 µM	1.04 ± 0.012
SK-LMS-1, 0.04115 µM	1.02 ± 0.044
SK-LMS-1, 0.1235 µM	1.03 ± 0.025
SK-LMS-1, 0.3704 µM	0.968 ± 0.067
SK-LMS-1, 1.111 µM	0.997 ± 0.041
SK-LMS-1, 3.333 µM	0.968 ± 0.021
SK-LMS-1, 10 µM	0.954 ± 0.014
SW684, 0.00017 µM	1.056 ± 0.0081
SW684, 0.00051 µM	1.07 ± 0.017
SW684, 0.00152 µM	1.08 ± 0.057
SW684, 0.00457 µM	1.11 ± 0.03
SW684, 0.01372 µM	1.13 ± 0.022
SW684, 0.04115 µM	1.06 ± 0.059
SW684, 0.1235 µM	1.11 ± 0.039
SW684, 0.3704 µM	1.1 ± 0.015
SW684, 1.111 µM	1.1 ± 0.038
SW684, 3.333 µM	1.1 ± 0.054
SW684, 10 µM	1 ± 0.038
SW872, 0.00017 µM	1.03 ± 0.013
SW872, 0.00051 µM	1.04 ± 0.016
SW872, 0.00152 µM	1.04 ± 0.027
SW872, 0.00457 µM	1.052 ± 0.0014
SW872, 0.01372 µM	1.06 ± 0.021
SW872, 0.04115 µM	1.03 ± 0.035
SW872, 0.1235 µM	1.03 ± 0.017
SW872, 0.3704 µM	1.04 ± 0.018
SW872, 1.111 µM	1.05 ± 0.035
SW872, 3.333 µM	1.047 ± 0.0027
SW872, 10 µM	1.04 ± 0.018
SW982, 0.00017 µM	1.02 ± 0.034
SW982, 0.00051 µM	0.981 ± 0.038
SW982, 0.00152 µM	0.987 ± 0.04
SW982, 0.00457 µM	1 ± 0.014
SW982, 0.01372 µM	0.996 ± 0.025
SW982, 0.04115 µM	1.01 ± 0.015
SW982, 0.1235 µM	0.984 ± 0.015
SW982, 0.3704 µM	0.966 ± 0.03
SW982, 1.111 µM	0.975 ± 0.019
SW982, 3.333 µM	0.982 ± 0.017
SW982, 10 µM	0.971 ± 0.01
VA-ES-BJ, 0.00017 µM	1.03 ± 0.018
VA-ES-BJ, 0.00051 µM	1.02 ± 0.029
VA-ES-BJ, 0.00152 µM	1 ± 0.033
VA-ES-BJ, 0.00457 µM	1.03 ± 0.028
VA-ES-BJ, 0.01372 µM	1.04 ± 0.013
VA-ES-BJ, 0.04115 µM	1.02 ± 0.033
VA-ES-BJ, 0.1235 µM	1.043 ± 0.0091
VA-ES-BJ, 0.3704 µM	1.003 ± 0.0068
VA-ES-BJ, 1.111 µM	1.01 ± 0.051
VA-ES-BJ, 3.333 µM	1.03 ± 0.016
VA-ES-BJ, 10 µM	0.988 ± 0.042
